Measurements: patent publication US6914045B2, “Glycopeptide antibiotics” (Wyeth Holdings Corporation, priority 2001, dated 2005)
≈ marks a conversion by molar mass, not a printed value.

Tests used:
Test in all cases: in vitro antibacterial evaluation, MIC by broth dilution
Assay type in all cases: cell-based
Escherichia coli = settings: 18 hours at 35° C.
In short: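 Broth dilution MIC per NCCLS M7-A2 in Mueller-Hinton II medium, inoculum 5×10^5 CFU/mL, antibiotic range 64-0.06 μg/mL. MIC taken as lowest concentration inhibiting growth.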

Enterococcus sp. = settings: broth dilution, 18 hours at 35° C.
In short: (§1)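 Broth dilution per NCCLS M7-A2 in Mueller-Hinton II medium, inoculum 5×10^5 CFU/mL, antibiotic range 64-0.06 μg/mL. MIC taken as lowest concentration inhibiting growth; Gram-positive panel includes recent clinical isolates resistant to methicillin, penicillin and/or vancomycin.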

Streptococcus sp. = settings: broth dilution, 18 hours at 35° C.
In short: as §1

Staphylococcus sp. = settings: broth dilution, 18 hours at 35° C.; for MIC Staphylococcus aureus (ATCC 29213): strain ATCC 29213; for MIC Staphylococcus aureus (GC 1131): strain GC 1131; for MIC Staphylococcus aureus (GC 3051): strain GC 3051; for MIC Staphylococcus aureus (GC 3053): strain GC 3053; for MIC Staphylococcus aureus (GC 4541): strain GC 4541; for MIC Staphylococcus aureus (GC 4542): strain GC 4542; for MIC Staphylococcus aureus (GC 4544): strain GC 4544; for MIC Staphylococcus aureus (GC 4545): strain GC 4545
In short: as §1

Tri-N-[(phenylmethoxy)carbonyl]-cyclo[glycl-β-methylphenylalanyltyrosyl-3-(2-iminoimidazolidin-4-yl)seryl-3-(3-hexopyranosyl-2-iminoimidazolidin-4-yl)serylseryl] [Example 89]
MIC Escherichia coli (ATCC 25922) (Escherichia coli): >64 µg/mL | MIC Escherichia coli (GC 4559) (Escherichia coli): >64 µg/mL | MIC Escherichia coli (GC 4560) (Escherichia coli): 32 µg/mL | MIC Enterococcus avium (GC 4558) (Enterococcus sp.; Enterococcus avium (GC 4558)): 32 µg/mL | MIC Enterococcus faecalis (ATCC 29212) (Enterococcus sp.; Enterococcus faecalis (ATCC 29212)): 64 µg/mL | MIC Enterococcus faecalis (GC 4552) (Enterococcus sp.; Enterococcus faecalis (GC 4552)): 64 µg/mL | MIC Enterococcus faecalis (GC 4553) (Enterococcus sp.; Enterococcus faecalis (GC 4553)): 64 µg/mL | MIC Enterococcus faecalis (GC 4554) (Enterococcus sp.; Enterococcus faecalis (GC 4554)): 64 µg/mL | MIC Enterococcus faecalis (GC 6189) (Enterococcus sp.; Enterococcus faecalis (GC 6189)): 64 µg/mL | MIC Enterococcus faecium (GC 2243) (Enterococcus sp.; Enterococcus faecium (GC 2243)): 64 µg/mL | MIC Enterococcus faecium (GC 4556) (Enterococcus sp.; Enterococcus faecium (GC 4556)): 64 µg/mL | MIC Enterococcus faecium (GC 4557) (Enterococcus sp.; Enterococcus faecium (GC 4557)): 32 µg/mL | MIC Enterococcus avium (GC 4558) (Enterococcus sp.): 32 µg/mL | MIC Enterococcus faecalis (ATCC 29212) (Enterococcus sp.): 64 µg/mL | MIC Enterococcus faecalis (GC 2242) (Enterococcus sp.): 64 µg/mL | MIC Enterococcus faecalis (GC 2691) (Enterococcus sp.): 64 µg/mL | MIC Enterococcus faecalis (GC 3059) (Enterococcus sp.): 64 µg/mL | MIC Enterococcus faecalis (GC 4552) (Enterococcus sp.): 64 µg/mL | MIC Enterococcus faecalis (GC 4553) (Enterococcus sp.): 64 µg/mL | MIC Enterococcus faecalis (GC 4554) (Enterococcus sp.): 64 µg/mL | MIC Enterococcus faecalis (GC 6189) (Enterococcus sp.): 64 µg/mL | MIC Enterococcus faecium (GC 2243) (Enterococcus sp.): 64 µg/mL | MIC Enterococcus faecium (GC 4556) (Enterococcus sp.): 64 µg/mL | MIC Enterococcus faecium (GC 4557) (Enterococcus sp.): 32 µg/mL | MIC Enterococcus faecalis (GC 2242) (Enterococcus sp.; strain GC 2242): 64 µg/mL | MIC Enterococcus faecalis (GC 2691) (Enterococcus sp.; strain GC 2691): 64 µg/mL | MIC Enterococcus faecalis (GC 3059) (Enterococcus sp.; strain GC 3059): 64 µg/mL | MIC Streptococcus agalactiae (GC 4564) (Streptococcus sp.): 32 µg/mL | MIC Streptococcus pneumoniae (ATCC 6301) (Streptococcus sp.): 16 µg/mL | MIC Streptococcus pneumoniae (GC 1894) (Streptococcus sp.): 4 µg/mL | MIC Streptococcus pneumoniae (GC 4565) (Streptococcus sp.): 8 µg/mL | MIC Streptococcus pyogenes (GC 4563) (Streptococcus sp.): 32 µg/mL | MIC Streptococcus pneumoniae (ATCC 6301) (Streptococcus sp.; strain ATCC 6301): 16 µg/mL | MIC Streptococcus pneumoniae (GC 1894) (Streptococcus sp.; strain GC 1894): 4 µg/mL | MIC Streptococcus pyogenes (GC 4563) (Streptococcus sp.; strain GC 4563): 32 µg/mL | MIC Streptococcus agalactiae (GC 4564) (Streptococcus sp.; strain GC 4564): 32 µg/mL | MIC Streptococcus pneumoniae (GC 4565) (Streptococcus sp.; strain GC 4565): 8 µg/mL | MIC Coagulase Negative Staphylococcus (GC 4547) (Staphylococcus sp.): 32 µg/mL | MIC Coagulase Negative Staphylococcus (GC 4548) (Staphylococcus sp.): 64 µg/mL | MIC Coagulase Negative Staphylococcus (GC 4549) (Staphylococcus sp.): 64 µg/mL | MIC Coagulase Negative Staphylococcus (GC 4551) (Staphylococcus sp.): 64 µg/mL | MIC Coagulase Negative Staphylococcus (GC 6257) (Staphylococcus sp.): 32 µg/mL | MIC Staphylococcus aureus-SMITH (GC 4543) (Staphylococcus sp.): 64 µg/mL | MIC Staphylococcus haemolyticus (GC 4546) (Staphylococcus sp.): 32 µg/mL | MIC Staphylococcus aureus (ATCC 29213) (Staphylococcus sp.): 64 µg/mL | MIC Staphylococcus aureus (GC 1131) (Staphylococcus sp.): 64 µg/mL | MIC Staphylococcus aureus (GC 3051) (Staphylococcus sp.): 64 µg/mL | MIC Staphylococcus aureus (GC 3053) (Staphylococcus sp.): 64 µg/mL | MIC Staphylococcus aureus (GC 4541) (Staphylococcus sp.): 64 µg/mL | MIC Staphylococcus aureus (GC 4542) (Staphylococcus sp.): 64 µg/mL | MIC Staphylococcus aureus-SMITH (GC 4543) (Staphylococcus sp.; strain GC 4543): 64 µg/mL | MIC Staphylococcus aureus (GC 4544) (Staphylococcus sp.): 64 µg/mL | MIC Staphylococcus aureus (GC 4545) (Staphylococcus sp.): 64 µg/mL | MIC Staphylococcus haemolyticus (GC 4546) (Staphylococcus sp.; strain GC 4546): 32 µg/mL | MIC Coagulase Negative Staphylococcus (GC 4547) (Staphylococcus sp.; strain GC 4547): 32 µg/mL | MIC Coagulase Negative Staphylococcus (GC 4548) (Staphylococcus sp.; strain GC 4548): 64 µg/mL | MIC Coagulase Negative Staphylococcus (GC 4549) (Staphylococcus sp.; strain GC 4549): 64 µg/mL | MIC Coagulase Negative Staphylococcus (GC 4551) (Staphylococcus sp.; strain GC 4551): 64 µg/mL | MIC Coagulase Negative Staphylococcus (GC 6257) (Staphylococcus sp.; strain GC 6257): 32 µg/mL

CC(c1ccccc1)C1NC(=O)CNC(=O)C(CO)NC(=O)C(C(O)C2CNC(=N)N2C2OC(CO)C(O)C(O)C2O)NC(=O)C(C(O)C2CNC(=N)N2)NC(=O)C(Cc2ccc(OC3OC(CO)C(OC4OC5COC6(CCCCC6)OC5C(O)C4O)C(O)C3O)cc2)NC1=O (stereo not shown) [Example 203]
MIC Escherichia coli (ATCC 25922) (Escherichia coli): 64 µg/mL (≈ 46.5 µM) | MIC Escherichia coli (GC 4559) (Escherichia coli): 32 µg/mL (≈ 23.3 µM) | MIC Escherichia coli (GC 4560) (Escherichia coli): 2 µg/mL (≈ 1.45 µM) | MIC Enterococcus avium (GC 4558) (Enterococcus sp.): 8 µg/mL (≈ 5.82 µM) | MIC Enterococcus faecalis (ATCC 29212) (Enterococcus sp.): 8 µg/mL (≈ 5.82 µM) | MIC Enterococcus faecalis (GC 2242) (Enterococcus sp.): 4 µg/mL (≈ 2.91 µM) | MIC Enterococcus faecalis (GC 2691) (Enterococcus sp.): 8 µg/mL (≈ 5.82 µM) | MIC Enterococcus faecalis (GC 3059) (Enterococcus sp.): 8 µg/mL (≈ 5.82 µM) | MIC Enterococcus faecalis (GC 4552) (Enterococcus sp.): 8 µg/mL (≈ 5.82 µM) | MIC Enterococcus faecalis (GC 4553) (Enterococcus sp.): 8 µg/mL (≈ 5.82 µM) | MIC Enterococcus faecalis (GC 4554) (Enterococcus sp.): 8 µg/mL (≈ 5.82 µM) | MIC Enterococcus faecalis (GC 6189) (Enterococcus sp.): 8 µg/mL (≈ 5.82 µM) | MIC Enterococcus faecium (GC 2243) (Enterococcus sp.): 8 µg/mL (≈ 5.82 µM) | MIC Enterococcus faecium (GC 4556) (Enterococcus sp.): 4 µg/mL (≈ 2.91 µM) | MIC Enterococcus faecium (GC 4557) (Enterococcus sp.): 4 µg/mL (≈ 2.91 µM) | MIC Enterococcus faecalis (ATCC 29212) (Enterococcus sp.; inoculum 5×10^5 CFU/mL, strain ATCC 29212): 8 µg/mL (≈ 5.82 µM) | MIC Enterococcus faecalis (GC 2242) (Enterococcus sp.; inoculum 5×10^5 CFU/mL, strain GC 2242): 4 µg/mL (≈ 2.91 µM) | MIC Enterococcus faecium (GC 2243) (Enterococcus sp.; inoculum 5×10^5 CFU/mL, strain GC 2243): 8 µg/mL (≈ 5.82 µM) | MIC Enterococcus faecalis (GC 2691) (Enterococcus sp.; inoculum 5×10^5 CFU/mL, strain GC 2691): 8 µg/mL (≈ 5.82 µM) | MIC Enterococcus faecalis (GC 3059) (Enterococcus sp.; inoculum 5×10^5 CFU/mL, strain GC 3059): 8 µg/mL (≈ 5.82 µM) | MIC Enterococcus faecalis (GC 4552) (Enterococcus sp.; inoculum 5×10^5 CFU/mL, strain GC 4552): 8 µg/mL (≈ 5.82 µM) | MIC Enterococcus faecalis (GC 4553) (Enterococcus sp.; inoculum 5×10^5 CFU/mL, strain GC 4553): 8 µg/mL (≈ 5.82 µM) | MIC Enterococcus faecalis (GC 4554) (Enterococcus sp.; inoculum 5×10^5 CFU/mL, strain GC 4554): 8 µg/mL (≈ 5.82 µM) | MIC Enterococcus faecium (GC 4556) (Enterococcus sp.; inoculum 5×10^5 CFU/mL, strain GC 4556): 4 µg/mL (≈ 2.91 µM) | MIC Enterococcus faecium (GC 4557) (Enterococcus sp.; inoculum 5×10^5 CFU/mL, strain GC 4557): 4 µg/mL (≈ 2.91 µM) | MIC Enterococcus avium (GC 4558) (Enterococcus sp.; inoculum 5×10^5 CFU/mL, strain GC 4558): 8 µg/mL (≈ 5.82 µM) | MIC Enterococcus faecalis (GC 6189) (Enterococcus sp.; inoculum 5×10^5 CFU/mL, strain GC 6189): 8 µg/mL (≈ 5.82 µM) | MIC Streptococcus agalactiae (GC 4564) (Streptococcus sp.): 1 µg/mL (≈ 0.727 µM) | MIC Streptococcus pneumoniae (ATCC 6301) (Streptococcus sp.): 0.5 µg/mL (≈ 0.364 µM) | MIC Streptococcus pneumoniae (GC 1894) (Streptococcus sp.): 0.12 µg/mL (≈ 0.0872 µM) | MIC Streptococcus pneumoniae (GC 4565) (Streptococcus sp.): 0.25 µg/mL (≈ 0.182 µM) | MIC Streptococcus pyogenes (GC 4563) (Streptococcus sp.): 0.5 µg/mL (≈ 0.364 µM) | MIC Streptococcus pneumoniae (ATCC 6301) (Streptococcus sp.; inoculum 5×10^5 CFU/mL, strain ATCC 6301): 0.5 µg/mL (≈ 0.364 µM) | MIC Streptococcus pneumoniae (GC 1894) (Streptococcus sp.; inoculum 5×10^5 CFU/mL, strain GC 1894): 0.12 µg/mL (≈ 0.0872 µM) | MIC Streptococcus pyogenes (GC 4563) (Streptococcus sp.; inoculum 5×10^5 CFU/mL, strain GC 4563): 0.5 µg/mL (≈ 0.364 µM) | MIC Streptococcus agalactiae (GC 4564) (Streptococcus sp.; inoculum 5×10^5 CFU/mL, strain GC 4564): 1 µg/mL (≈ 0.727 µM) | MIC Streptococcus pneumoniae (GC 4565) (Streptococcus sp.; inoculum 5×10^5 CFU/mL, strain GC 4565): 0.25 µg/mL (≈ 0.182 µM) | MIC Staphylococcus aureus (GC 1131) (Staphylococcus sp.; inoculum 5×10^5 CFU/mL): 2 µg/mL (≈ 1.45 µM) | MIC Staphylococcus aureus (ATCC 29213) (Staphylococcus sp.): 1 µg/mL (≈ 0.727 µM) | MIC Staphylococcus aureus (GC 1131) (Staphylococcus sp.): 2 µg/mL (≈ 1.45 µM) | MIC Staphylococcus aureus (GC 3051) (Staphylococcus sp.): 2 µg/mL (≈ 1.45 µM) | MIC Staphylococcus aureus (GC 3053) (Staphylococcus sp.): 4 µg/mL (≈ 2.91 µM) | MIC Staphylococcus aureus (GC 4541) (Staphylococcus sp.): 1 µg/mL (≈ 0.727 µM) | MIC Staphylococcus aureus (GC 4542) (Staphylococcus sp.): 1 µg/mL (≈ 0.727 µM) | MIC Staphylococcus aureus-SMITH (GC 4543) (Staphylococcus sp.; strain GC 4543): 2 µg/mL (≈ 1.45 µM) | MIC Staphylococcus aureus (GC 4544) (Staphylococcus sp.): 2 µg/mL (≈ 1.45 µM) | MIC Staphylococcus aureus (GC 4545) (Staphylococcus sp.): 1 µg/mL (≈ 0.727 µM) | MIC Staphylococcus haemolyticus (GC 4546) (Staphylococcus sp.; strain GC 4546): 1 µg/mL (≈ 0.727 µM) | MIC Coagulase Negative Staphylococcus (GC 4547) (Staphylococcus sp.; strain GC 4547): 2 µg/mL (≈ 1.45 µM) | MIC Coagulase Negative Staphylococcus (GC 4548) (Staphylococcus sp.; strain GC 4548): 1 µg/mL (≈ 0.727 µM) | MIC Coagulase Negative Staphylococcus (GC 4549) (Staphylococcus sp.; strain GC 4549): 1 µg/mL (≈ 0.727 µM) | MIC Coagulase Negative Staphylococcus (GC 4551) (Staphylococcus sp.; strain GC 4551): 2 µg/mL (≈ 1.45 µM) | MIC Coagulase Negative Staphylococcus (GC 6257) (Staphylococcus sp.; strain GC 6257): 1 µg/mL (≈ 0.727 µM)
